How the values were obtained:
[1] = target: T1, Carbonic anhydrase 2 (Homo sapiens, UniProt P00918); experiment: Binding affinity to GST-fused human carbonic anhydrase-2 expressed in Escherichia coli BL21 codon plus cells assessed as dissociation constant by SPR method
[2] = target: T1, Carbonic anhydrase 2; experiment: Binding affinity to GST-fused human carbonic anhydrase-2 expressed in Escherichia coli BL21 codon plus cells assessed as steady state dissociation constant by SPR method

| Kd [1] | Kd [2] | Structure (SMILES) |
| --- | --- | --- |
| 57.8 µM | 60.6 µM | CCCc1ccc(S(N)(=O)=O)cc1 |
| 98.3 µM | 125 µM | CCc1ccc(S(N)(=O)=O)cc1 |

— ChEMBL document CHEMBL3817775, “Kinetic and Structural Insights into the Mechanism of Binding of Sulfonamides to Human Carbonic Anhydrase by Computational and Experimental Studies” (J Med Chem, 2016)
